According to PubChem BioAssay AID330 (DTP/NCI, 2004):
Inconclusive results and toxic doses are left out.

Test system: P388 leukemia ip, CD2F1 mice, survival T/C
Test: NCI In Vivo Anticancer Drug Screen. Data for tumor model P388 Leukemia (intraperitoneal) in CD2F1 (CDF1) mice
Details: endpoint: median survival time, higher = longer survival
Summary of the method: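 Mice carrying the transplanted tumor received test compound or vehicle. Survival was recorded in each group, and the value is the treated-group measurement divided by that of the vehicle-treated control group.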

With CCCCCCCCCCCCCCCC(=O)N(CCCN(CC)CC)C(C)CCCN(CC)CC (stereo not drawn) the T/C (dose: 0.38 mg/kg/injection, schedule: Q01DX009 (ip), vehicle: water) was 96 % of control, the T/C (dose: 0.75 mg/kg/injection, schedule: Q01DX009 (ip), vehicle: water) was 98 % of control and the T/C (dose: 1.5 mg/kg/injection, schedule: Q01DX009 (ip), vehicle: water) was 98 % of control. The T/C (dose: 3.0 mg/kg/injection, schedule: Q01DX009 (ip), vehicle: water) was 95 % of control and the T/C (dose: 6.0 mg/kg/injection, schedule: Q01DX009 (ip), vehicle: water) was 92 % of control.
With COCCCn1c(-c2ccc(Cl)cc2)nn2c(=O)c3ccccc3nc2c1=O the T/C (dose: 50.0 mg/kg/injection, schedule: Q01DX009 (ip), vehicle: saline) was 97 % of control, the T/C (dose: 100.0 mg/kg/injection, schedule: Q01DX009 (ip), vehicle: saline) was 92 % of control and the T/C (dose: 200.0 mg/kg/injection, schedule: Q01DX009 (ip), vehicle: saline) was 92 % of control.
For COc1cc2cc3c4ccc(OC)c(OC)c4cc[n+]3c(C)c2cc1OC (tested in a mixture with another compound), the T/C (dose: 12.5 mg/kg/injection, schedule: Q01DX009 (ip), vehicle: saline with Tween-80) was 150 % of control, the T/C (dose: 25.0 mg/kg/injection, schedule: Q01DX009 (ip), vehicle: saline with Tween-80) was 164 % of control and the T/C (dose: 50.0 mg/kg/injection, schedule: Q01DX009 (ip), vehicle: saline with Tween-80) was 174 % of control. For the same compound, the T/C (dose: 100.0 mg/kg/injection, schedule: Q01DX009 (ip), vehicle: saline with Tween-80) was 209 % of control.
O=[N+]([O-])c1c(NC2(CO)CCCC2)ncnc1NC1(CO)CCCC1 was tested, and the T/C (dose: 65.5 mg/kg/injection, schedule: Q04DX003 (ip), vehicle: Klucel (hydroxypropylcellulose) (HPC)) was 97 % of control, the T/C (dose: 131.0 mg/kg/injection, schedule: Q04DX003 (ip), vehicle: Klucel (hydroxypropylcellulose) (HPC)) was 105 % of control and the T/C (dose: 262.0 mg/kg/injection, schedule: Q04DX003 (ip), vehicle: Klucel (hydroxypropylcellulose) (HPC)) was 102 % of control.
CCN1CSC(=S)N(Cc2ccccc2)C1 was tested, and the T/C (dose: 50.0 mg/kg/injection, schedule: Q01DX009 (ip), vehicle: Klucel (hydroxypropylcellulose) (HPC)) was 99 % of control, the T/C (dose: 100.0 mg/kg/injection, schedule: Q01DX009 (ip), vehicle: Klucel (hydroxypropylcellulose) (HPC)) was 101 % of control and the T/C (dose: 200.0 mg/kg/injection, schedule: Q01DX009 (ip), vehicle: Klucel (hydroxypropylcellulose) (HPC)) was 101 % of control.
